Results from PubChem BioAssay AID2060617 (Molecular Pharmacology Branch, DTP, NCI, 2025).
Values joined by “and” are separate entries in the source; they are usually repeats but may differ in a detail not shown here. Equal values may be shown once.

Test system: 485368-065-R4-J2-PDC spheroids with HUVEC/MSC, viability
Experiment: Anticancer human tumor 485368-065-R4-J2-PDC patient-derived pancreatic carcinoma cell line growth inhibition [CLK]
Details: for viability, T/C: stronger effect = lower value
Text: A high-throughput screen of multi-cell type tumor spheroids was designed to identify active combinations of […] and targeted small molecules. Complex spheroids include a stromal component modeled by human endothelial cells (HUVEC) and fibroblasts modeled by human mesenchymal stem cells (MSCs). The concentration ranges selected for each drug and investigational agent were based upon clinically achievable concentrations if the clinical Cmax of the agent was known.
Compounds. The drugs and investigational agents: cirtuvivint (SM08502; NSC835563), CC-671 (NSC850746), vemurafenib (NSC761431), tapotoclax (NSC804041), sotorasib (NSC818433), adagrasib (NSC831453), MRTX-1133 (NSC836407), BAY2416964 (NSC825713), copanlisib (NSC816437), inavolisib (NSC800729), abemaciclib (NSC768073), osimertinib (NSC779217), entinostat (NSC756642), eltanexor (KPT-8602, NSC794443), venetoclax (NSC766270), ceralasertib (NSC777638), bortezomib (NSC756655), olaparib (NSC753686), talazoparib (NSC767125), alisertib (NSC759677), peposertib (NSC802822), gemcitabine (NSC613327), 5-fluorouracil (NSC19893), SN-38 (NSC673596), oxaliplatin (NSC266046), paclitaxel (NSC125973), and doxorubicin (NSC123127), were obtained from the National Cancer Institute (NCI) Developmental Therapeutics Program Chemical Repository. The FDA-approved anticancer drug set is available from the Developmental Therapeutics Program at https://dtp.cancer.gov/organization/dscb/obtaining/available plates.htm. […] The stock solutions were prepared in dimethyl sulfoxide (DMSO, Sigma-Aldrich, St. Louis, MO, cat. D2650), except for the platinum complexes which were prepared in saline (Quality Biological, Gaithersburg, MD, cat. 114-055-101), at 800-fold the tested concentration and stored at -70 degrees C prior to their use. All drugs and investigational agents were tested over a range starting from a high concentration at or near the clinical Cmax and decreasing in half-log increments. If the clinical Cmax for an agent had not been determined, the highest concentration tested was 10 microM.
Cell Culture. All cells were maintained in an incubator at 37 degrees C and 5% CO2 with 95% humidity. The PDC lines were cultured according to standard operating procedures established by the NCI PDMR. Briefly, all PDCs were thawed and cultured in Matrigel-coated flasks prepared with a working solution of 1X Ham's F-12 nutrient mix, without supplementation (Invitrogen, Waltham, MA, cat. 11765054), 100 U/mL penicillin-streptomycin (Invitrogen, cat. 15140122), and 2.5% Matrigel (Corning Inc., Corning, NY, cat. 354248) for the first three passages. The 947758-054-R-J2-PDC line was cultured in 6B/Colon 1A media, which includes advanced DMEM/F-12 (Thermo Fisher Scientific, cat. 12634028), 10 mM HEPES (Thermo Fisher Scientific, cat. 15630080), 1X GlutaMAX supplement (Thermo Fisher Scientific, cat. 35050061), 0.1 mg/mL primocin (InvivoGen, cat. ant-pm-2), 10% defined fetal bovine serum, heat inactivated (HyClone Laboratories Inc., cat. SH30070.03HI), 1.25 mM N-Acetyl-L-cysteine (Sigma-Aldrich, cat. A9165), 10 mM nicotinamide (Sigma-Aldrich, cat. N0636), 1X B-27 supplement (Thermo Fisher Scientific, cat. 17504044), 1X N-2 supplement (Thermo Fisher Scientific, cat. 17502048), and 10 microM Y-27632 dihydrochloride (Tocris Bioscience, cat. 1254). The 876862-298-R-J1-PDC was cultured in 6E media, which includes all 6B/Colon 1A media components plus 50% L-WRN conditioned media (ATCC, cat. CRL-3276), 50 ng/mL recombinant human EGF recombinant protein (hEGF; Thermo Fisher Scientific, cat. PHG0311), 10 ng/mL recombinant human fibroblast growth factor 10 (hGFG-10; PeproTech, cat. 100-26), 1 ng/mL recombinant human fibroblast growth factor 2 (hFGF-2; PeproTech, cat. 100-18B), and 1 µM prostaglandin E2 (PGE2; Tocris, cat. 2296). The 227483-062-R1-J1-PDC line was cultured in Panc media, containing all 6E components except hFGF-2, with the addition of 500 nM SB-431542 (Selleckchem, cat. S1067) and 10 nM gastrin (Tocris, cat. 3006). […]
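Further: spheroids exposed to compounds for seven days.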
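Wherever viability, T/C is given: 100% = DMSO vehicle control wells.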

O=c1[nH]cc(F)c(=O)[nH]1
viability, T/C (compound 0.0316 µM): 95.5% and 88.4% | viability, T/C (compound 0.1 µM): 96.6% and 84.4% | viability, T/C (compound 0.316 µM): 95.6% and 87.4% | viability, T/C (compound 1 µM): 96.9% and 95.8% | viability, T/C (compound 3.16 µM): 96.6% and 96% | viability, T/C (compound 10 µM): 88.5% and 82.3% | IC50 (curve of compound): > 10 µM

O=C(c1cc(Cc2n[nH]c(=O)c3ccccc23)ccc1F)N1CCN(C(=O)C2CC2)CC1 + CNC(=O)c1ccc(Nc2nc(OC3CCCC3)c3c(-c4ccc5nc(C)oc5c4)c[nH]c3n2)c(OC)c1
IC50 (curve of first compound, second compound 0.0316 µM): > 10 µM | IC50 (curve of first compound, second compound 0.1 µM): > 10 µM | IC50 (curve of first compound, second compound 0.316 µM): > 10 µM | IC50 (curve of first compound, second compound 1 µM): > 10 µM | IC50 (curve of first compound, second compound 3.16 µM): > 10 µM | IC50 (curve of first compound, second compound 10 µM): > 10 µM | viability, T/C (second compound 0.0316 µM, first compound 0.0316 µM): 88% | viability, T/C (second compound 0.0316 µM, first compound 0.1 µM): 101% | viability, T/C (second compound 0.0316 µM, first compound 0.316 µM): 94.5% | viability, T/C (second compound 0.0316 µM, first compound 1 µM): 102% | viability, T/C (second compound 0.0316 µM, first compound 3.16 µM): 106% | viability, T/C (second compound 0.0316 µM, first compound 10 µM): 100% | viability, T/C (second compound 0.1 µM, first compound 0.0316 µM): 97.5% | viability, T/C (second compound 0.1 µM, first compound 0.1 µM): 106% | viability, T/C (second compound 0.1 µM, first compound 0.316 µM): 104% | viability, T/C (second compound 0.1 µM, first compound 1 µM): 106% | viability, T/C (second compound 0.1 µM, first compound 3.16 µM): 101% | viability, T/C (second compound 0.1 µM, first compound 10 µM): 86.1% | viability, T/C (second compound 0.316 µM, first compound 0.0316 µM): 87.9% | viability, T/C (second compound 0.316 µM, first compound 0.1 µM): 91% | viability, T/C (second compound 0.316 µM, first compound 0.316 µM): 91.6% | viability, T/C (second compound 0.316 µM, first compound 1 µM): 83.7% | viability, T/C (second compound 0.316 µM, first compound 3.16 µM): 84.3% | viability, T/C (second compound 0.316 µM, first compound 10 µM): 81.7% | viability, T/C (second compound 1 µM, first compound 0.0316 µM): 83.6% | viability, T/C (second compound 1 µM, first compound 0.1 µM): 83.3% | viability, T/C (second compound 1 µM, first compound 0.316 µM): 86.2% | viability, T/C (second compound 1 µM, first compound 1 µM): 78.3% | viability, T/C (second compound 1 µM, first compound 3.16 µM): 78.8% | viability, T/C (second compound 1 µM, first compound 10 µM): 71.8% | viability, T/C (second compound 3.16 µM, first compound 0.0316 µM): 75.9% | viability, T/C (second compound 3.16 µM, first compound 0.1 µM): 77.6% | viability, T/C (second compound 3.16 µM, first compound 0.316 µM): 72.9% | viability, T/C (second compound 3.16 µM, first compound 1 µM): 73.5% | viability, T/C (second compound 3.16 µM, first compound 3.16 µM): 69.6% | viability, T/C (second compound 3.16 µM, first compound 10 µM): 68.2% | viability, T/C (second compound 10 µM, first compound 0.0316 µM): 76.3% | viability, T/C (second compound 10 µM, first compound 0.1 µM): 86.9% | viability, T/C (second compound 10 µM, first compound 0.316 µM): 77.5% | viability, T/C (second compound 10 µM, first compound 1 µM): 76.5% | viability, T/C (second compound 10 µM, first compound 3.16 µM): 77.3% | viability, T/C (second compound 10 µM, first compound 10 µM): 59.3%
